We go through 35 compounds from ChEMBL document CHEMBL1136498, “Ureas of 5-aminopyrazole and 2-aminothiazole inhibit growth of gram-positive bacteria” (Bioorg Med Chem Lett, 2003).

For experiment [1], the system named is Staphylococcus aureus. Nature of the experiment: Concentration that inhibits 50% growth of methicillin resistant Staphylococcus aureus in the microdilution wells. Format: functional, organism-based. A general note: Broth dilution looks for growth in wells or tubes with falling amounts of substance.
Experiment [2] concerns Staphylococcus aureus. The experiment can be described thus: Concentration that inhibits 50% growth of methicillin resistant Staphylococcus aureus in the microdilution wells; IA=Inactive. The experiment is classed as functional, organism-based.
Experiment [3] has as its system Staphylococcus aureus. Nature of the experiment: Minimal inhibitory concentration for Staphylococcus aureus bacteria (ATCC 9604 SV) was determined by broth microdilution methodology; IA=Inactive. Format: functional, organism-based.
Experiment [4] deals with Mus musculus. The experiment can be described thus: In vivo efficacy versus methicillin resistant Staphylococcus aureus in mice administered sc at 2x20mg/kg, expressed as percent survival. The experiment is classed as functional.
Experiment [5] has as its system Mus musculus. Nature of the experiment: In vivo efficacy versus methicillin resistant Staphylococcus aureus in mice administered sc at 2x2mg/kg, expressed as percent survival. The experiment is classed as functional.
Experiment [6] has as its system Staphylococcus aureus. The experiment can be described thus: Minimal inhibitory concentration for Staphylococcus aureus bacteria (ATCC 9604 SV) was determined by broth microdilution methodology. Format: functional.
The subject of experiment [7] is Mus musculus. Nature of the experiment: In vivo efficacy versus methicillin resistant Staphylococcus aureus in mice administered sc at 20 mg/kg, expressed as percent survival. The experiment is classed as functional. The settings on record: route subcutaneous.
In experiment [8] the test system is Mus musculus. The experiment can be described thus: In vivo efficacy versus methicillin resistant Staphylococcus aureus in mice administered sc at 2mg/kg, expressed as percent survival. The experiment is classed as functional.

Values after ≈ are worked out from the molar mass of the structure shown. Active and inactive are the calls of the source. The rule behind the calls is not given here.

A word on the IC50: it is the concentration that gives 50% inhibition. A higher IC50 goes with weaker potency. In the experiment on Staphylococcus aureus [1], `O=C(Nc1cc(C(F)(F)F)cc(C(F)(F)F)c1)Nc1nc(-c2ccc(Br)cc2)cs1` displayed an IC50 of 133 nM.
As a reminder, the MIC is the least concentration at which growth counts as inhibited. As for `O=C(Nc1ccc(C(F)(F)F)cc1Cl)Nc1cc(-c2ccccc2)nn1-c1ccc(C(F)(F)F)cc1`, the IC50 entry in the experiment on Staphylococcus aureus [2] is “Not Active”. The MIC entry in the experiment with Staphylococcus aureus [3] is “inactive”.
In the same order, the values of `Cc1ccccc1NC(=O)Nc1cc(-c2ccccc2)nn1-c1ccc(C(F)(F)F)cc1` are “Not Active” and “inactive”.
As for `O=C(Nc1cccc(Br)c1)Nc1nc(-c2ccc(Br)cc2)cs1`, the midpoint of inhibition in the experiment on Staphylococcus aureus [1], the IC50, lay at 543 nM.
Turning to `CC(C)(C)c1csc(NC(=O)NCc2cccc(Cl)c2)n1`, the Survival came out at 50% with Mus musculus [4] and 25% with Mus musculus [5]. The same compound displayed an MIC with Staphylococcus aureus [6] of 8.1 µg/mL (≈ 25 µM).
As for `O=C(Nc1ccccc1-c1ccccc1)Nc1cc(-c2ccccc2)nn1-c1ccc(C(F)(F)F)cc1`, the IC50 entry with Staphylococcus aureus [2] was “Not Active”. In the experiment on Staphylococcus aureus [3], the MIC entry was “inactive”.
For the compound `O=C(Nc1cc(Cl)cc(Cl)c1)Nc1cc(-c2cccs2)nn1-c1ccc(Br)cc1`, 71 nM corresponded to half-maximal inhibition in the experiment on Staphylococcus aureus [1] (IC50). Besides, the survival at 20 mg/kg with Mus musculus [7] worked out at 25%. The same compound came in with an MIC in the experiment on Staphylococcus aureus [6] of 0.847 µg/mL (≈ 1.67 µM). The same compound displayed a survival at 2 mg/kg with Mus musculus [8] of 0%.
In the case of `Cc1cc(C)cc(NC(=O)Nc2cc(-c3ccccc3)nn2-c2ccc(C(F)(F)F)cc2)c1`, the IC50 entry in the experiment on Staphylococcus aureus [2] is listed as “Not Active”. Besides, the MIC entry in the experiment with Staphylococcus aureus [3] is “inactive”.
Compound `CC(C)(C)c1cc(NC(=O)Nc2cc(Cl)cc(Cl)c2)n(-c2ccc(Br)cc2)n1` yielded an IC50 with Staphylococcus aureus [1] of 132 nM. In the experiment with Mus musculus [7], this compound displayed a survival at 20 mg/kg of 0%. The MIC in the experiment with Staphylococcus aureus [6] is less than 0.723 µg/mL. The survival at 2 mg/kg with Mus musculus [8] came to 0%.
In the case of `O=C(Nc1cc(C(F)(F)F)cc(C(F)(F)F)c1)Nc1nc(CCc2ccccc2)cs1`, half-maximal inhibition in the experiment on Staphylococcus aureus [1] (IC50) required 367 nM. In the experiment with Staphylococcus aureus [6], this compound showed an MIC of 23 µg/mL (≈ 50.1 µM).
The compound `COc1ccc(-c2csc(NC(=O)Nc3cc(C(F)(F)F)cc(C(F)(F)F)c3)n2)c(OC)c1` gave an IC50 in the experiment with Staphylococcus aureus [1] of more than 5000 nM.
The compound `O=C(Nc1nc(-c2ccc(Cl)cc2)cs1)Nc1c(Cl)cc(Cl)cc1Cl` registered an IC50 in the experiment on Staphylococcus aureus [1] of 927 nM.
On the same count and under the same terms, with `Cc1cc(C)cc(NC(=O)Nc2nc(-c3ccc(Cl)cc3)cs2)c1` the figure was more than 5000 nM.
The compound `COCCN(CCOC)Cc1cc(NC(=O)Nc2cc(C(F)(F)F)cc(C(F)(F)F)c2)n(-c2ccc(Br)cc2)n1` displayed an IC50 in the experiment with Staphylococcus aureus [1] of 1560 nM. Further, the Survival is recorded as 33% with Mus musculus [4] and 0% with Mus musculus [5]. This compound also displayed a survival at 20 mg/kg in the experiment with Mus musculus [7] of 25%. In addition, the MIC against Staphylococcus aureus [6] is 16 µg/mL (≈ 25.1 µM). Besides, the survival at 2 mg/kg with Mus musculus [8] was 25%.
Regarding `CN[C@H](CC(C)C)C(=O)N[C@H]1C(=O)N[C@@H](CC(N)=O)C(=O)N[C@H]2C(=O)N[C@H]3C(=O)N[C@H](C(=O)N[C@H](C(=O)O)c4cc(O)cc(O)c4-c4cc3ccc4O)[C@H](O)c3ccc(c(Cl)c3)Oc3cc2cc(c3O[C@@H]2O[C@H](CO)[C@@H](O)[C@H](O)[C@H]2O[C@H]2C[C@](C)(N)[C@H](O)[C@H](C)O2)Oc2ccc(cc2Cl)[C@H]1O` [VANCOMYCIN], in the experiment on Staphylococcus aureus [1], the IC50 came out at 839 nM. Further, the values for the Survival in the experiment with Mus musculus [4] and in the experiment with Mus musculus [5] were 100% and 25%, respectively. The compound also registered an MIC with Staphylococcus aureus [6] of 0.75 µg/mL (≈ 0.518 µM).
As to `O=C(NCc1cccc(Cl)c1)Nc1nc(C2CCCC2)cs1`, the Survival with Mus musculus [4] and with Mus musculus [5] was 25% in each case. The compound also had an MIC against Staphylococcus aureus [6] of 8.4 µg/mL (≈ 25 µM).
In the experiment with Staphylococcus aureus [1], `Cc1cc(NC(=O)Nc2cc(C(F)(F)F)cc(C(F)(F)F)c2)n(-c2ccc(Br)cc2)n1` registered an IC50 of 268 nM. In addition, the MIC in the experiment on Staphylococcus aureus [6] was less than 0.761 µg/mL.
In the same order, the values of `CCOC(=O)c1cnn(-c2ccc(Br)cc2)c1NC(=O)Nc1cc(C(F)(F)F)cc(C(F)(F)F)c1` are 261 nM and less than 0.848 µg/mL.
Compound `O=C(Nc1nc(-c2ccc(Cl)cc2)cs1)Nc1ccc(Br)cc1C(F)(F)F` had an IC50 in the experiment with Staphylococcus aureus [1] of 4710 nM.
Turning to `O=C(Nc1cc(C(F)(F)F)cc(C(F)(F)F)c1)Nc1cc(CO)nn1-c1ccc(Br)cc1`, the midpoint of inhibition with Staphylococcus aureus [1], the IC50, lay at 4240 nM. Also, the Survival in the experiment with Mus musculus [4] and in the experiment with Mus musculus [5] was 33% each time. The MIC against Staphylococcus aureus [6] was determined as 6.54 µg/mL (≈ 12.5 µM).
With `O=C(Nc1cc(C(F)(F)F)cc(C(F)(F)F)c1)Nc1nc(CCCO)cs1`, in the experiment on Staphylococcus aureus [1], the IC50 stood at 2070 nM.
For the compound `COc1ccc(OC)c(-c2csc(NC(=O)Nc3cc(C(F)(F)F)cc(C(F)(F)F)c3)n2)c1`, the IC50 in the experiment with Staphylococcus aureus [1] was more than 5000 nM.
Regarding `O=C(Nc1cc(C(F)(F)F)cc(C(F)(F)F)c1)Nc1c(-c2ccccc2)cnn1-c1ccc(C(F)(F)F)cc1`, in the experiment with Staphylococcus aureus [1], it took 330 nM to reach half-maximal inhibition (IC50). Further, in the experiment on Mus musculus [7], the survival at 20 mg/kg was determined as 0%. Further, the survival at 2 mg/kg with Mus musculus [8] was found to be 0%.
In the experiment on Staphylococcus aureus [1], `O=C(Nc1ccc(F)c(C(F)(F)F)c1)Nc1nc(-c2ccc(F)c(F)c2)cs1` had an IC50 of 180 nM. For the same compound, the survival at 20 mg/kg in the experiment with Mus musculus [7] worked out at 0%. Moreover, the MIC against Staphylococcus aureus [6] is less than 0.626 µg/mL. Further, the survival at 2 mg/kg with Mus musculus [8] turned out to be 0%.
As for `CCOC(=O)c1cc(NC(=O)Nc2cc(C(F)(F)F)cc(C(F)(F)F)c2)n(-c2ccc(Br)cc2)n1`, half-maximal inhibition in the experiment with Staphylococcus aureus [1] (IC50) was put at 3100 nM. For the same compound, the Survival in the experiment with Mus musculus [4] stood at 33%; with Mus musculus [5], 0%. The MIC against Staphylococcus aureus [6] was more than 14.1 µg/mL.
`O=C(Nc1cc(C(F)(F)F)cc(C(F)(F)F)c1)Nc1nc(-c2cccs2)cs1` yielded an IC50 in the experiment with Staphylococcus aureus [1] of 259 nM. Besides, in the experiment with Staphylococcus aureus [6], the lowest concentration to inhibit growth (MIC) was 1.31 µg/mL (≈ 3 µM).
Consider `Cc1sc(NC(=O)Nc2cc(C(F)(F)F)cc(C(F)(F)F)c2)nc1-c1ccc(Br)cc1`, for which the IC50 with Staphylococcus aureus [1] is 838 nM.
Consider `O=C(Nc1cc(Cl)cc(Cl)c1)Nc1cc(-c2ccccc2)nn1-c1ccc(C(F)(F)F)cc1`, for which, in the experiment on Staphylococcus aureus [1], the IC50 worked out at 81 nM. This compound showed a survival at 20 mg/kg in the experiment with Mus musculus [7] of 12.5%. This compound also showed an MIC against Staphylococcus aureus [6] of 12.3 µg/mL (≈ 25 µM). In addition, in the experiment with Mus musculus [8], the survival at 2 mg/kg came out at 0%.
As for `COc1cc(NC(=O)Nc2nc(-c3ccc(Cl)cc3)cs2)cc(OC)c1`, in the experiment with Staphylococcus aureus [1], the IC50 was more than 5000 nM.
The compound `O=C(Nc1ccc(Cl)c(C(F)(F)F)c1)Nc1cc(-c2ccccc2)nn1-c1ccc(C(F)(F)F)cc1` displayed an IC50 with Staphylococcus aureus [1] of 96 nM. The compound further displayed an MIC in the experiment on Staphylococcus aureus [6] of less than 0.787 µg/mL.
For `O=C(NCc1ccc(Cl)c(Cl)c1)Nc1nc(-c2ccc(Br)cc2)cs1`, in the experiment on Staphylococcus aureus [6], the lowest concentration to inhibit growth (MIC) was 11.4 µg/mL (≈ 24.9 µM).
The compound `O=C(Nc1ccc(SC(F)(F)F)cc1)Nc1nc(-c2ccc(F)c(F)c2)cs1` had an IC50 in the experiment on Staphylococcus aureus [1] of 134 nM. The same compound showed an MIC in the experiment with Staphylococcus aureus [6] of less than 0.647 µg/mL.
In the experiment with Staphylococcus aureus [1], `O=C(Nc1cc(Cl)cc(Cl)c1)Nc1cc(-c2ccccc2)nn1-c1ccc(Cl)cc1` gave an IC50 of 148 nM. Further, the survival at 20 mg/kg with Mus musculus [7] was 25%. This compound also came in with an MIC against Staphylococcus aureus [6] of more than 22.9 µg/mL. The compound further showed a survival at 2 mg/kg with Mus musculus [8] of 25%.
In the case of `O=C(Nc1cc(C(F)(F)F)cc(C(F)(F)F)c1)Nc1cc(-c2ccccc2)nn1-c1ccc(C(F)(F)F)cc1`, the IC50 in the experiment with Staphylococcus aureus [1] came out at 54 nM. In the experiment on Mus musculus [7], this compound had a survival at 20 mg/kg of 0%. This compound registered an MIC with Staphylococcus aureus [6] of less than 0.838 µg/mL. In the experiment with Mus musculus [8], the survival at 2 mg/kg was 0%.
`O=C(Nc1cc(C(F)(F)F)cc(C(F)(F)F)c1)Nc1cc(-c2ccncc2)nn1-c1ccc(C(F)(F)F)cc1` had an IC50 in the experiment with Staphylococcus aureus [1] of 214 nM. Also, the figures for the Survival with Mus musculus [4] and in the experiment with Mus musculus [5] were 17% and 0%, respectively. The same compound gave a survival at 20 mg/kg in the experiment on Mus musculus [7] of 25%. In the experiment with Staphylococcus aureus [6], the MIC was 1.68 µg/mL (≈ 3 µM). In addition, the survival at 2 mg/kg in the experiment with Mus musculus [8] was found to be 25%.
